Reference: patent US20210071137A1, “PRODUCTION METHOD FOR CELL MASS INCLUDING NEURAL CELLS/TISSUE AND NON-NEURAL EPITHELIAL TISSUE, AND CELL MASS FROM SAME” (SUMITOMO CHEMICAL COMPANY, LIMITED, priority 2017, published 2021)

Tests used:
[1] = system: Human ES cells (KhES-1 strain); experiment: Effect of each Wnt signal transduction pathway inhibiting substance on production of cell mass containing neural tissue and nonneural epithelial tissue (Example 7); type: cell-based; details: inhibitor added from start of suspension culturing (IWP-2 2 or 5 μM, C-59 2 μM, IWP-L6 1 or 10 μM, LGK974 1 or 5 μM, KY 02111 1 or 5 μM, XAV939 1 μM) with SB-431542 1 μM; BMP4 1.5 nM on day 2; bright field observation day 10
Experimental: Human ES cells (KhES-1 strain) were cultured under feeder-free conditions according to the method described in Scientific Reports, 4, 3594 (2014). As the feeder-free medium, StemFit medium was used and, as the feeder-free scaffold, Laminin 511-E8 was used. Specific maintenance culturing operation was performed in the same manner as in Example 1.
The thus-prepared subconfluent human ES cells were washed with PBS, subjected to an enzyme treatment using Accumax, a mukessei medium medium for differentiation induction was added, and the cells were scraped from the surface of the culture dish by using a cell scraper and dispersed into single cells by pipetting. Thereafter, the aforementioned human ES cells dispersed into single cells were suspended in 100 μl of a serum-free medium at 1.2×10^4 cells per well of a non-cell-adhesive 96-well culture plate (PrimeSurface 96V-bottom plate, manufactured by SUMITOMO BAKELITE), and cultured in suspension under the conditions of 37° C., 5% CO2. As the serum-free medium (gfCDM+KSR) therefor, a serum-free medium which is a 1:1 mixture of F-12+Glutamax medium and IMDM+Glutamax medium supplemented with 5% Knockout Serum Replacement, 450 μM 1-mono thioglycerol, 1× Chemically defined lipid concentrate, 50u/ml penicillin-50 μg/ml streptomycin was used. At the time of the start of suspension culturing (day 0 from the start of suspension culturing, start of step 1), Y27632 (final concentration 20 μM) and SB-431542 (1 μM) were added to the aforementioned serum-free medium. As the Wnt signal transduction pathway inhibiting substance, IWP-2 (manufactured by Tocris Bioscience, 2 or 5 μM), C-59 (manufactured by Cayman Chemicals, 2 μM), IWP-L6 (manufactured by AdooQ bioscience, 1 or 10 μM), LGK974 (manufactured by Cayman Chemicals, 1 or 5 μM), KY 02111 (manufactured by Cayman Chemicals, 1 or 5 μM), or XAV939 (manufactured by Cayman Chemicals, 1 μM) was added at the start of the suspension culturing, and the condition with the addition of DMSO alone as a control of no addition of a Wnt signal transduction pathway inhibiting substance was performed. Thereafter, a serum-free medium not containing Y27632 and containing each Wnt signal transduction pathway inhibiting substance, SB-431542 and BMP4 was added at 100 μl per well on day 2 from the start of suspension culturing. BMP4 was added at 3 nM to the medium so that the final concentration in the well could be 1.5 nM. A half amount of the medium was changed with a serum-free medium not containing Y27632 or BMP and containing each Wnt signal transduction pathway inhibiting substance and SB-431542 on day 6 from the start of suspension culturing. Bright field observation was performed under an inverted microscope (manufactured by KEYENCE CORPORATION, BIOREVO) on day 10 from the start of suspension culturing (FIGS. 8A-K).

[2] = system: Human ES cells (KhES-1 strain); experiment: Effect of compound pre-treatment before differentiation induction on quality grade of cell masses (Example 8); type: cell-based; details: day 15 of differentiation induction; for number of Grade 1 cell masses (near spherical, not less than 80% of circumference coated with nonneural epithelium) / number of Grade 2 cell masses (80% to 40% of circumference coated with nonneural epithelium, or distorted shape) / number of Grade 3 cell masses (nonneural epithelium on surface not more than 40%): of 32 cell masses, pre-treatment 6 days after seeding (300 nM SAG and/or 5 μM SB-431542)
Experimental: Human ES cells (KhES-1 strain) were cultured under feeder-free conditions according to the method described in Scientific Reports, 4, 3594 (2014). As the feeder-free medium, StemFit medium was used and, as the feeder-free scaffold, Laminin 511-E8 was used. Specific maintenance culturing operation was performed in the same manner as in Example 1. Cells under 4 conditions were prepared including conditions in which, when the cultured cells are used for differentiation induction, nothing is simultaneously added with medium change with […] medium (Control), conditions in which 300 nM SAG alone is added (+300 nM SAG), conditions in which 5 µM SB-431542 alone is added (+5 μM SB-431542), and conditions in which SAG and SB431542 are simultaneously added (+SAG/SB) at 6 days after seeding. The next day of the above-mentioned treatment, human ES cells under 4 conditions that reached subconfluence were each subjected to differentiation induction by suspension culturing into a cell mass containing neural tissue and nonneural epithelial tissue according to the method described in Example 1. Thereafter, on day 15 of differentiation induction, bright field observation was performed using an inverted microscope (manufactured by KEYENCE CORPORATION, BIOREVO). The cell masses formed after each pre-treatment were evaluated in three stages of cell masses with near spherical form in which not less than 80% of the whole circumference is coated with nonneural epithelium (Grade 1, e.g.-FIG. 9A); cell masses in which 80% to 40% of the whole circumference is coated with nonneural epithelium, or with a distorted shape (Grade 2, e.g.-FIG. 9B); and cell masses in which the proportion of nonneural epithelium on the cell mass surface is not more than 40% (Grade 3, e.g.=FIG. 9C).

## Cc1cc(-c2ccc(CC(=O)Nc3ccc(-c4cccnc4)cc3)cc2)ccn1 [C-59]
[1]
  formation of cell mass having nonneural epithelial tissue on the surface: a cell mass having nonneural epithelial tissue on the surface was formed

## Cc1ccc2nc(NC(=O)CSc3nc4c(c(=O)n3-c3ccccc3)SCC4)sc2c1 [IWP-2]
[1]
  formation of cell mass having nonneural epithelial tissue on the surface: a cell mass having nonneural epithelial tissue on the surface was formed

## O=C(CSc1nc2c(c(=O)n1-c1ccccc1)SCC2)Nc1ccc(-c2ccccc2)cn1 [IWP-L6]
[1]
  formation of cell mass having nonneural epithelial tissue on the surface: a cell mass having nonneural epithelial tissue on the surface was formed

## COc1ccc(CCC(=O)Nc2nc3ccc(Cl)cc3s2)cc1OC [KY02111]
[1]
  formation of cell mass having nonneural epithelial tissue on the surface: a cell mass having nonneural epithelial tissue on the surface was formed

## Cc1cc(-c2ncc(CC(=O)Nc3ccc(-c4cnccn4)cn3)cc2C)ccn1 [LGK974]
[1]
  formation of cell mass having nonneural epithelial tissue on the surface: a cell mass having nonneural epithelial tissue on the surface was formed

## CNC1CCC(N(Cc2cccc(-c3ccncc3)c2)C(=O)c2sc3ccccc3c2Cl)CC1 (stereo not shown) [SAG, N-Methyl-N′-(3-pyridinylbenzyl)-N′-(3-chlorobenzo[b]thiophene-2-carbonyl)-1,4-diaminocyclohexane]
[2]
  number of Grade 1 cell masses (near spherical, not less than 80% of circumference coated with nonneural epithelium): 10
  number of Grade 2 cell masses (80% to 40% of circumference coated with nonneural epithelium, or distorted shape): 18
  number of Grade 3 cell masses (nonneural epithelium on surface not more than 40%): 4

## NC(=O)c1ccc(-c2nc(-c3ccc4c(c3)OCO4)c(-c3ccccn3)[nH]2)cc1 [SB-431542, 4-(5-benzol[1,3]dioxol-5-yl-4-pyridin-2-yl-1H-imidazol-2-yl)-benzamide]
[2]
  number of Grade 1 cell masses (near spherical, not less than 80% of circumference coated with nonneural epithelium): 28
  number of Grade 2 cell masses (80% to 40% of circumference coated with nonneural epithelium, or distorted shape): 4
  number of Grade 3 cell masses (nonneural epithelium on surface not more than 40%): 0
[2]; pre-treatment 6 days after seeding
  proportion of Grade 1 cell masses as compared to Control with no treatment: drastically improved

## Oc1nc(-c2ccc(C(F)(F)F)cc2)nc2c1CSCC2 [XAV939]
[1]
  formation of cell mass having nonneural epithelial tissue on the surface: a cell mass having nonneural epithelial tissue on the surface was formed
